This note sets out measurements from US20260108547A1, “LEVERAGING L-FUCOSE-MEDIATED SIGNALING TO INDUCE MONOCYTE-DERIVED DENDRITIC CELL POLARIZATION” (H. LEE MOFFITT CANCER CENTER AND RESEARCH INSTITUTE, INC., priority 2022, published 2026).

In one assay the test system is breast tumors. Briefly: Syngeneic breast tumor model, tumor growth and flow cytometry of immune cells. In kind it is in vivo. From the text:
We observed that L-fucose reduces tumor growth in breast cancer and enriches for CD11c+ cells.

The subject of assay [1] is SM1 tumors. Briefly: Flow cytometric profiling of tumors and draining lymph nodes, SM1 tumors in C57BL/6 mice fed ± L-fucose and treated ± anti-PD-1 (Table 2). In kind it is in vivo, mouse. How it is done:
Tumors of SW1 or SM1 melanoma cells from […] or C57BL/6 mice, respectively) were digested using 1× tumor digest buffer (0.5 mg/mL Collagenase I, 0.5 mg/mL Collagenase IV, 0.25 mg/mL Hyalyronidase V, 0.1 mg/mL DNAse I in HBSS (Millipore Sigma (St. Louis, MO)). Tumors were homogenized using the Miltenyi MACs dissociator. Red blood cells were lysed using ACK lysis buffer (Life Technologies, (Grand Island, NY)). Tumor homogenate cells were counted using a standard hemocytometer.
Total TILs were gated first to single cells (based on forward scatter height vs width, followed by side scatter height vs. width). Live cells were gated from the Zombie negative population from the population above. TILs were gated based on splenocyte size from a control spleen. Individual immune subpopulations were sub-gated from the total TIL population using the following staining criteria: CD3^+ for CD3^+ T cells; CD3^+/CD4^+/CD8^− for CD4^+T cells; CD3^+/CD4^−/CD8^+ for CD8^+ T cells, CD11c^+/CD11b^+ for DCs; either NK1.1 (for C57/BL6 mice) or DX5 (for C3H/HeJ) for NK cells; CD11b^+/GR1^+ for MDSC-like cells; and F4/80^+ for macrophages. Single-cell suspensions from tumor and spleen tissue were stained with Live/Dead Zombie NIR (Biolegend, (San Diego, CA)) at 1:1,000 in PBS for 20 min. […]

The subject of the next assay is BMMC. Nature of the assay: Flow cytometric DC polarization of BMMC. In kind it is cell-based. As to the method: We next investigated the effect of L-fucose on dendritic cell differentiation. To test whether L-fucose affected immature or mature myeloid cells preferentially, BMMC were treated with L-fucose at various stages of development, pre=before maturation cocktail, concurrent=during maturation cocktail or post=after maturation cocktail (FIG. 23A). […] We next sought to determine if L-fucose equally affected subpopulations of DCs. By flow cytometric analysis we were able to determine that moDC are affected most by the modulation of fucosylation in immature myeloid cell populations.

In the next assay the test system is SW1 tumors. Nature of the assay: DC clustering by CD11c in SW1 tumors from mice treated +/- L-fucose. The note with it: mouse, in vivo.
For assay [2], the system named is SM1 tumors. Briefly: Volumetric tumor growth, SM1 melanoma in C57BL/6 mice. The following applies: SM1 model. In kind it is in vivo, mouse. From the text: All animals were housed at the Vincent A. Stabile Research building animal facility at H. Lee Moffitt Cancer Center & Research Institute, which is fully accredited by the Association for Assessment and Accreditation of Laboratory Animal Care International (AAALAC, #434), and are managed in accordance with the Guide for the Care and Use of Laboratory Animals (“The Guide”), the Animal Welfare Regulations Title 9 Code of Federal Regulations Subchapter A, “Animal Welfare”, Parts 1-3 (AWR), the Public Health Service Policy on Humane Care and Use of Laboratory Animals (PHS Policy), and by the USF Institutional Animal Care and Use Committee's Principles and Procedures of Animal Care and Use (IACUC Principles). The experiments and protocols detailed in this study received institutional approval by the Moffitt IACUC (RIS00001625). Four-to-six-week-old female C3H/HeN and male C57BL6 mice were purchased from Charles Rivers Laboratories for the indicated experiments. Four-to-six-week-old male NSG mice from the Lau laboratory breeding colony were used for the indicated experiments. Power calculations were used to determine mouse cohort sizes to detect significant changes in tumor sizes. […] Mouse tumor volumes were measured using length, width and depth divided by 2. […]

On to `C[C@H](O)[C@@H](O)[C@@H](O)[C@H](O)C=O` [L-fucose], for which, in the assay on breast tumors (flow cytometry), the “CD11c+ cells in breast tumors” value was “enrichment of CD11c+ cells”. In the assay with breast tumors (syngeneic breast tumor model), the breast tumor growth entry was “dose-dependent tumor suppression”. In the assay with SM1 tumors [1] (Day 21, lymph nodes), the “average # of cDC2 cells” value was found to be 13997.11 per 10^6 cells. Moreover, the “intratumoral CD4+T central and effector memory cells” value in the assay with SM1 tumors [1] (SM1 model, L-fuc alone) is “increased”. Further, the “polarization of myeloid cells (DC subpopulations)” value with BMMC (flow cytometric analysis) is given as “polarizes myeloid cells towards a moDC phenotype”. The “absolute DC numbers” value with BMMC (flow cytometric profiling of BMMCs) is “without affecting absolute DC numbers”. Moreover, in the assay with BMMC (treated pre, concurrent or post maturation cocktail), the “DC polarization of BMMC” value is listed as “leads to DC polarization of BMMC at any stage of myeloid development”. Further, in the assay on SW1 tumors, the “DC clustering by CD11c in SW1 tumors” value is listed as “increased DC clustering”. Also, the “tumor suppression, single agent” value in the assay on SM1 tumors [2] is reported as “less tumor suppressive than anti-PD1 alone”. For the same molecule, the “tumor suppression in combination with anti-PD1” value with SM1 tumors [2] (L-fuc in combination with anti-PD1) was “augmented durable suppression”.
